# Values quoted from earlier work, collected in publication PMC11887511 (Crystal Growth & Design, 2025).
# Details: no reference given
compound,measurement,value
"O=C(O)CNCC(=O)O [IDA, iminodiacetic acid]",pKa1,2.12
same,pKa2,2.90
same,pKa[base],9.63
